# What was measured:
# Conditions in all cases: 72 h
# Caco-2 [1] = assay: cell viability relative to DMSO; higher = less toxic
# Calu-3 [2] = assay: as above
# HepG2 [3] = assay: as above
# U2OS [4] = assay: as above
# Vero E6 [5] = assay: as above
# Caco-2 [6] = assay: relative viability EC50 (midpoint between 100% and the lowest measured viability); higher = less toxic
# Calu-3 [7] = assay: as above
# Vero E6 [8] = assay: as above
# Caco-2 [9] = assay: drug sensitivity score (DSS) for viability; higher = more toxic; extreme values may be limits of the assay
# Calu-3 [10] = assay: as above
# HepG2 [11] = assay: as above
# U2OS [12] = assay: as above
# Vero E6 [13] = assay: as above
# U2OS [14] = assay: relative viability EC50 (midpoint between 100% and the lowest measured viability); higher = less toxic
# HepG2 [15] = assay: as above
structure (smiles),measurement,setting,value
Cc1cc(CN2CCN(c3c(Br)cnc4nc(-c5ccc(N6CCN(C)CC6)cc5)[nH]c34)CC2)no1,cell viability,Caco-2 [1]; 1 nM,101%
same,cell viability,Caco-2 [1]; 10 nM,99.3%
same,cell viability,Caco-2 [1]; 100 nM,99.7%
same,cell viability,Caco-2 [1]; 1000 nM,96.8%
same,cell viability,Caco-2 [1]; 10000 nM,84.7%
same,cell viability,Calu-3 [2]; 1 nM,97.8%
same,cell viability,Calu-3 [2]; 10 nM,103%
same,cell viability,Calu-3 [2]; 100 nM,94.2%
same,cell viability,Calu-3 [2]; 1000 nM,114%
same,cell viability,Calu-3 [2]; 10000 nM,105%
same,cell viability,HepG2 [3]; 1 nM,101%
same,cell viability,HepG2 [3]; 10 nM,98%
same,cell viability,HepG2 [3]; 100 nM,106%
same,cell viability,HepG2 [3]; 1000 nM,65.6%
same,cell viability,HepG2 [3]; 10000 nM,59.9%
same,cell viability,U2OS [4]; 1 nM,98.7%
same,cell viability,U2OS [4]; 10 nM,106%
same,cell viability,U2OS [4]; 100 nM,98.1%
same,cell viability,U2OS [4]; 1000 nM,102%
same,cell viability,U2OS [4]; 10000 nM,74.8%
same,cell viability,Vero E6 [5]; 1 nM,96%
same,cell viability,Vero E6 [5]; 10 nM,96.6%
same,cell viability,Vero E6 [5]; 100 nM,94.1%
same,cell viability,Vero E6 [5]; 1000 nM,83.6%
same,cell viability,Vero E6 [5]; 10000 nM,84.2%
same,relative viability EC50,Caco-2 [6],> 10 µM
same,relative viability EC50,Calu-3 [7],> 10 µM
same,relative viability EC50,Vero E6 [8],> 10 µM
same,drug sensitivity score,Caco-2 [9],0.6
same,drug sensitivity score,Calu-3 [10],0
same,drug sensitivity score,HepG2 [11],6
same,drug sensitivity score,U2OS [12],0.8
same,drug sensitivity score,Vero E6 [13],1.5
O=C1C=CC(=O)C2=C1C1c3ccccc3C2c2ccccc21 [INCA-6],cell viability,Caco-2 [1]; 1 nM,97.5%
same,cell viability,Caco-2 [1]; 10 nM,93.5%
same,cell viability,Caco-2 [1]; 100 nM,94.5%
same,cell viability,Caco-2 [1]; 1000 nM,96.6%
same,cell viability,Caco-2 [1]; 10000 nM,90.1%
same,cell viability,Calu-3 [2]; 1 nM,98.2%
same,cell viability,Calu-3 [2]; 10 nM,99.3%
same,cell viability,Calu-3 [2]; 100 nM,96.7%
same,cell viability,Calu-3 [2]; 1000 nM,95.7%
same,cell viability,Calu-3 [2]; 10000 nM,104%
same,cell viability,HepG2 [3]; 1 nM,102%
same,cell viability,HepG2 [3]; 10 nM,112%
same,cell viability,HepG2 [3]; 100 nM,96.8%
same,cell viability,HepG2 [3]; 1000 nM,106%
same,cell viability,HepG2 [3]; 10000 nM,68.5%
same,cell viability,U2OS [4]; 1 nM,98%
same,cell viability,U2OS [4]; 10 nM,93.7%
same,cell viability,U2OS [4]; 100 nM,98.2%
same,cell viability,U2OS [4]; 1000 nM,97.5%
same,cell viability,U2OS [4]; 10000 nM,88.2%
same,cell viability,Vero E6 [5]; 1 nM,93.3%
same,cell viability,Vero E6 [5]; 10 nM,96.7%
same,cell viability,Vero E6 [5]; 100 nM,87%
same,cell viability,Vero E6 [5]; 1000 nM,96.1%
same,cell viability,Vero E6 [5]; 10000 nM,105%
same,relative viability EC50,Caco-2 [6],> 10 µM
same,relative viability EC50,Calu-3 [7],> 10 µM
same,relative viability EC50,U2OS [14],> 10 µM
same,relative viability EC50,Vero E6 [8],> 10 µM
same,drug sensitivity score,Caco-2 [9],0
same,drug sensitivity score,Calu-3 [10],0
same,drug sensitivity score,HepG2 [11],1.1
same,drug sensitivity score,U2OS [12],0
same,drug sensitivity score,Vero E6 [13],0
Cc1cc(C)c(N(Cc2ccccc2)S(=O)(=O)c2ccc(OCCNC(=O)c3cc4ccccc4o3)cc2)c(C(=O)NO)c1,cell viability,Caco-2 [1]; 1 nM,94.1%
same,cell viability,Caco-2 [1]; 10 nM,101%
same,cell viability,Caco-2 [1]; 100 nM,105%
same,cell viability,Caco-2 [1]; 1000 nM,88.8%
same,cell viability,Caco-2 [1]; 10000 nM,42%
same,cell viability,Calu-3 [2]; 1 nM,95.2%
same,cell viability,Calu-3 [2]; 10 nM,103%
same,cell viability,Calu-3 [2]; 100 nM,96.9%
same,cell viability,Calu-3 [2]; 1000 nM,99.4%
same,cell viability,Calu-3 [2]; 10000 nM,73.4%
same,cell viability,HepG2 [3]; 1 nM,93.4%
same,cell viability,HepG2 [3]; 10 nM,98.9%
same,cell viability,HepG2 [3]; 100 nM,91%
same,cell viability,HepG2 [3]; 1000 nM,94.5%
same,cell viability,HepG2 [3]; 10000 nM,37.8%
same,cell viability,U2OS [4]; 1 nM,104%
same,cell viability,U2OS [4]; 10 nM,96.3%
same,cell viability,U2OS [4]; 100 nM,100%
same,cell viability,U2OS [4]; 1000 nM,98.5%
same,cell viability,U2OS [4]; 10000 nM,63.9%
same,cell viability,Vero E6 [5]; 1 nM,105%
same,cell viability,Vero E6 [5]; 10 nM,107%
same,cell viability,Vero E6 [5]; 100 nM,105%
same,cell viability,Vero E6 [5]; 1000 nM,104%
same,cell viability,Vero E6 [5]; 10000 nM,47%
same,relative viability EC50,Caco-2 [6],1.77 µM
same,relative viability EC50,HepG2 [15],2.43 µM
same,relative viability EC50,Vero E6 [8],3.55 µM
same,drug sensitivity score,Caco-2 [9],5
same,drug sensitivity score,Calu-3 [10],1.1
same,drug sensitivity score,HepG2 [11],4.3
same,drug sensitivity score,U2OS [12],1.9
same,drug sensitivity score,Vero E6 [13],2.5
CC(C[N+](C)(C)C)OC(N)=O (stereo not drawn) [bethanechol],cell viability,Caco-2 [1]; 1 nM,121%
same,cell viability,Caco-2 [1]; 10 nM,111%
same,cell viability,Caco-2 [1]; 100 nM,118%
same,cell viability,Caco-2 [1]; 1000 nM,97.4%
same,cell viability,Caco-2 [1]; 10000 nM,104%
same,cell viability,HepG2 [3]; 1 nM,97.1%
same,cell viability,HepG2 [3]; 10 nM,104%
same,cell viability,HepG2 [3]; 100 nM,92.1%
same,cell viability,HepG2 [3]; 1000 nM,106%
same,cell viability,HepG2 [3]; 10000 nM,106%
same,cell viability,U2OS [4]; 1 nM,100%
same,cell viability,U2OS [4]; 10 nM,98.8%
same,cell viability,U2OS [4]; 100 nM,98.3%
same,cell viability,U2OS [4]; 1000 nM,95.5%
same,cell viability,U2OS [4]; 10000 nM,95.7%
same,cell viability,Vero E6 [5]; 1 nM,99.3%
same,cell viability,Vero E6 [5]; 10 nM,91.8%
same,cell viability,Vero E6 [5]; 100 nM,103%
same,cell viability,Vero E6 [5]; 1000 nM,86.8%
same,cell viability,Vero E6 [5]; 10000 nM,98.2%
same,relative viability EC50,Caco-2 [6],> 10 µM
same,relative viability EC50,HepG2 [15],> 10 µM
same,relative viability EC50,U2OS [14],> 10 µM
same,relative viability EC50,Vero E6 [8],> 10 µM
same,drug sensitivity score,Caco-2 [9],0
same,drug sensitivity score,HepG2 [11],0
same,drug sensitivity score,U2OS [12],0
same,drug sensitivity score,Vero E6 [13],0

# From the supplement of paper PMC13380429
